The source of these data is PMC8457735, “Synthesis, Kinetics, Binding Conformations and Structure-activity Relationship of Potent Tyrosinase Inhibitors: Aralkylated 2-aminothiazole-ethyltriazole Hybrids” (Iranian Journal of Pharmaceutical Research : IJPR, 2021).

“Also recorded” adds a separate entry of the source.

The term melting point denotes the temperature of the solid-liquid transition.

The target of one data set is mushroom tyrosinase (Agaricus bisporus, UniProt C7FF04). Description: Kinetic analysis of tyrosinase inhibition (Lineweaver-Burk and secondary plots). The format is biochemical. How it is done:
A series of experiments were performed to determine the inhibition kinetics of 7g, following the already reported methods ([54]). The concentrations for 7g were 0.00, 0.0018, 0.0036 and 0.0072 µM. Substrate L-DOPA concentrations were between 0.0625 to 2 mM in all kinetic studies. Pre-incubation and measurement time was the same as discussed in the mushroom tyrosinase inhibition assay protocol. Maximal initial velocity was determined from the initial linear portion of absorbance up to five minutes after the addition of enzyme at the 30s interval. The inhibition type of the enzyme was assayed by Lineweaver-Burk plots of the inverse of velocities (1/V) versus the inverse of substrate concentration 1/[L-DOPA] mM^-1.

A short description of data set [1]: Free radical scavenging assay (DPPH). Particulars: compound concentration 100 µg/mL. As to the method:
Radical scavenging activity was determined by modifying the already reported method by 2, 2-diphenyl-1 picrylhydrazyl (DPPH) assay ([55]). The assay solution consisted of 100 µL of DPPH (150 µM), 20 µL of increasing concentration of test compounds, and the volume was adjusted to 200 µL in each well with CH3OH. After that, the assay reaction was then incubated for 30 minutes at room temperature. Ascorbic acid (Vitamin C) was used as a reference inhibitor. The assay measurements were carried out using a microplate reader (OPTI Max, Tunable) at 517 nm. The reaction rates were compared, and the percent inhibition caused by tested inhibitors was calculated. All experiments were repeated thrice.
A general note: Loss of DPPH colour is used to gauge radical scavenging.

Chain of mushroom tyrosinase (C7FF04 1-392): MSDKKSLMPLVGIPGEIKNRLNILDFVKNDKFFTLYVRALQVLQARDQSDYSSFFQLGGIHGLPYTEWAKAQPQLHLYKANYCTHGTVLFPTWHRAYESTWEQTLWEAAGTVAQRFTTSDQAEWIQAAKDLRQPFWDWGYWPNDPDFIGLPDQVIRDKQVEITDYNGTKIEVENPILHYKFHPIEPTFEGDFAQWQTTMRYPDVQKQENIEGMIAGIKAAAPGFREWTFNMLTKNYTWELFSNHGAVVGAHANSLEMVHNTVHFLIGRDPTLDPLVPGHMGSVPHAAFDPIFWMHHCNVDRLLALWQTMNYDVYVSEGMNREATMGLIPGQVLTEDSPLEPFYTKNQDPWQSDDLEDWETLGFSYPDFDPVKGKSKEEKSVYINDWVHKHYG

For `CCn1c(Cc2csc(N)n2)nnc1SCc1ccc(Cl)cc1Cl` [Compound 7g, 4-({5-[(2,4-Dichlorobenzyl)sulfanyl]-4-ethyl-4H-1,2,4-triazol-3-yl}methyl)-1,3-thiazol-2-amine], the Vmax is 6.676 × 10^-5 ΔA/s on mushroom tyrosinase (L-DOPA activity in presence of 0.0018 µM 7g), 4.712 × 10^-5 ΔA/s on mushroom tyrosinase (L-DOPA activity in presence of 0.0036 µM 7g) and 4.223 × 10^-5 ΔA/s on mushroom tyrosinase (L-DOPA activity in presence of 0.0072 µM 7g). For the same molecule, the “Inhibition Type” value at mushroom tyrosinase (Lineweaver-Burk plots, substrate L-DOPA 0.0625-2 mM) is reported as “non-competitively; also recorded: Non-Competitive”. In addition, the radical scavenging activity in data set [1] was found to be 24%.
For `CCn1c(Cc2csc(N)n2)nnc1SCc1ccc(Cl)c(Cl)c1` [Compound 7h, 4-({5-[(3,4-Dichlorobenzyl)sulfanyl]-4-ethyl-4H-1,2,4-triazol-3-yl}methyl)-1,3-thiazol-2-amine], in data set [1], the radical scavenging activity is on record as 21%.
For `CCn1c(Cc2csc(N)n2)nnc1SCc1ccccc1Br` [Compound 7i, 4-({5-[(2-Bromobenzyl)sulfanyl]-4-ethyl-4H-1,2,4-triazol-3-yl}methyl)-1,3-thiazol-2-amine], the melting point was in the range of 108 to 109 °C.
For `CCn1c(Cc2csc(N)n2)nnc1SCc1ccc(Br)cc1` [Compound 7k, -({5-[(4-Bromobenzyl)sulfanyl]-4-ethyl-4H-1,2,4-triazol-3-yl}methyl)-1,3-thiazol-2-amine], the melting point fell in the range of 150 to 151 °C.
